Consider 27 molecules from patent US11952330B2, “Antibiotic ammonium compounds and methods for the treatment of bacterial infections” (priority 2019, dated 2024).

The test system of assay [1] is S. aureus. Nature of the assay: MIC by broth dilution, S. aureus. As to conditions: Staphylococcus aureus; Mueller-Hinton broth, overnight 37° C.; Table 1; read-out: MIC (μg/mL) S. aureus. The class given is cell-based. As for the experimental part:
(§1) The antibacterial efficacy of the ammonium compounds was assessed. Minimum inhibitory concentrations (MICs) were determined by broth dilution method. Dilutions of each compound, ranging from 1 μg/mL to 256 μg/mL (final concentrations) were prepared in Mueller-Hinton broth. Compound dilutions were added to wells of a 96-well plate, with the concentration of the compound increasing 2-fold by row. Each well contained 5×10^5 CFU/ml of target bacterium in a total volume of 100 μl. Plates were incubated overnight at 37° C. The following day, plates were evaluated for a visual change in growth to determine the MIC. The concentration value corresponding to the first row that no longer had visible bacterial growth, as evaluated by turbidity in the wells, was recorded as the MIC. MIC values were representative of at least biological duplicates, each made up of technical triplicates. The antibacterial efficacy of ammonium compounds in the presence of human plasma was assessed. Minimum inhibitory concentrations (MICs) were determined by broth dilution method. Dilutions of each compound, ranging from 1 μg/mL to 256 μg/mL (final concentrations) were prepared in Mueller-Hinton broth. For the plasma containing samples, compound dilutions were made in Mueller-Hinton broth and supplemented with 5% (final %) human plasma (esterases). Compound dilutions were added to wells of a 96-well plate, with the concentration of the compound increasing 2-fold by row. Each well contained 5×10^5 CFU/mL of target bacterium in a total volume of 100 μL. Plates were incubated overnight at 37° C. The following day, plates were evaluated for a visual change in growth to determine the MIC. The concentration value corresponding to the first row that no longer had visible bacterial growth, as evaluated by turbidity in the wells, was recorded as the MIC. MIC values were representative of at least biological duplicates, each made up of technical triplicates.
(In general: Broth dilution looks for growth in wells or tubes with falling amounts of substance.)

In assay [2] the test system is A. baumannii. The experiment in a line: MIC by broth dilution, A. baumannii. Format: cell-based. As to conditions: Acinetobacter baumannii; Mueller-Hinton broth, overnight 37° C.; Table 1; read-out: MIC (μg/mL) A. baumannii. The protocol: as §1

In the case of `CCCCCCOc1ccccc1C(=O)Nc1ccc(C(=O)OCC[N+](CC)(CC)CCC)cc1.[Br-]` [Compound 66, N,N-Diethyl-N-(2-((4-(2-(hexyloxy)benzamido)benzoyl)oxy)ethyl)propan-1-aminium bromide], the MIC is 3 to 30 µg/mL in assay [1] and greater than 30 µg/mL in assay [2].

In the case of `CCCCCCOc1ccccc1C(=O)Nc1ccc(C(=O)OCC[N+](CC)(CC)CCCC)cc1.[Br-]` [Compound 67, N,N-Diethyl-N-(2-((4-(2-(hexyloxy)benzamido)benzoyl)oxy)ethyl)butan-1-aminium bromide], the MIC was 3 to 30 µg/mL in assay [1] and greater than 30 µg/mL in assay [2].

Turning to `CCCCCCCOc1ccccc1C(=O)Nc1ccc(C(=O)OCC[N+](CC)(CC)CCC)cc1.[Br-]` [Compound 69, N,N-Diethyl-N-(2-((4-(2-(heptyloxy)benzamido)benzoyl)oxy)ethyl)propan-1-aminium bromide], the MIC in assay [1] was 3 to 30 µg/mL; in assay [2] it was greater than 30 µg/mL.

On to `CCCCCCCOc1ccccc1C(=O)Nc1ccc(C(=O)OCC[N+](CC)(CC)CCCC)cc1.[Br-]` [Compound 70, N,N-Diethyl-N-(2-((4-(2-(heptyloxy)benzamido)benzoyl)oxy)ethyl)butan-1-aminium bromide], for which the MIC in assay [1] is less than 3 µg/mL; in assay [2], 3 to 30 µg/mL.

Consider `CCCCCCCOc1ccccc1C(=O)Nc1ccc(C(=O)OCC[N+](CC)(CC)CCCCC)cc1.[Br-]` [Compound 71, N,N-Diethyl-N-(2-((4-(2-(heptyloxy)benzamido)benzoyl)oxy)ethyl)pentan-1-aminium bromide], for which the MIC in assay [1] is less than 3 µg/mL; in assay [2] it was 3 to 30 µg/mL.

For the molecule `CCCCCCCCOc1ccccc1C(=O)Nc1ccc(C(=O)NC2CC[N+](C)(CCC)CC2)cc1.[Br-]` (stereo not drawn) [Compound 72, 1-Methyl-4-(4-(2-(octyloxy)benzamido)benzamido)-1-propylpiperidin-1-ium bromide], the MIC is 3 to 30 µg/mL in assay [1] and greater than 30 µg/mL in assay [2].

On to `CCCCCCCOc1ccccc1C(=O)Nc1ccc(C(=O)NC2CC[N+](C)(CCC)CC2)cc1.[Br-]` (stereo not drawn) [Compound 73, 4-(4-(2-(Heptyloxy)benzamido)benzamido)-1-methyl-1-propylpiperidin-1-ium bromide], for which the MIC is 3 to 30 µg/mL in assay [1] and greater than 30 µg/mL in assay [2].

`CCCCCCCCOc1ccccc1C(=O)Nc1ccc(C(=O)N(C)C2CC[N+](CC)(CCC)CC2)cc1.[Br-]` (stereo not drawn) [Compound 74, 1-Ethyl-4-(N-methyl-4-(2-(octyloxy)benzamido)benzamido)-1-propylpiperidin-1-ium bromide]: the MIC in assay [1] is 3 to 30 µg/mL; in assay [2], greater than 30 µg/mL.

As for `CCCCCCCCOc1ccccc1C(=O)Nc1ccc(C(=O)NC2CC[N+](CCC)(CCC)CC2)cc1.[Br-]` [Compound 75, 4-(4-(2-(Octyloxy)benzamido)benzamido)-1,1-dipropylpiperidin-1-ium bromide], the MIC in assay [1] is 3 to 30 µg/mL; in assay [2], greater than 30 µg/mL.

Take `CCCCCCCOc1ccccc1C(=O)Nc1ccc(C(=O)NC2CC[N+](CCC)(CCC)CC2)cc1.[Br-]` [Compound 76, 4-(4-(2-(Heptyloxy)benzamido)benzamido)-1,1-dipropylpiperidin-1-ium bromide]: the MIC in assay [1] was 3 to 30 µg/mL; in assay [2], greater than 30 µg/mL.

With `CCCCCCCOc1ccccc1C(=O)Nc1ccc(C(=O)NCC[N+](C)(CC)CC)cc1.[Br-]` [Compound 77, N,N-Diethyl-2-(4-(2-(heptyloxy)benzamido)benzamido)-N-methylethan-1-aminium bromide], the figures for the MIC in assay [1] and in assay [2] were 3 to 30 µg/mL and greater than 30 µg/mL, respectively.

In the case of `CCCCCCCCOc1ccccc1C(=O)Nc1ccc(S(=O)(=O)NCC[N+](C)(CC)CC)cc1.[Br-]` [Compound 78, N,N-Diethyl-N-methyl-2-((4-(2-(octyloxy)benzamido)phenyl)sulfonamido)ethan-1-aminium bromide], the MIC in assay [1] and in assay [2] was 3 to 30 µg/mL throughout.

Turning to `CCCCCCCOc1ccccc1C(=O)Nc1ccc(S(=O)(=O)NCC[N+](C)(CC)CC)cc1.[Br-]` [Compound 79, N,N-Diethyl-2-((4-(2-(heptyloxy)benzamido)phenyl)sulfonamido)-N-methylethan-1-aminium bromide], the MIC in assay [1] is 3 to 30 µg/mL; in assay [2] it was greater than 30 µg/mL.

With `CCCCCCCCOc1ccccc1C(=O)Nc1ccc(C(=O)NC2CC[N+](C)(CC)CC2)cc1.[Br-]` (stereo not drawn) [Compound 80, 1-Ethyl-1-methyl-4-(4-(2-(octyloxy)benzamido)benzamido)piperidin-1-ium bromide], the MIC in assay [1] is 3 to 30 µg/mL; in assay [2], greater than 30 µg/mL.

Consider `CCCCCCCOc1ccccc1C(=O)Nc1ccc(C(=O)NC2CC[N+](C)(CC)CC2)cc1.[Br-]` (stereo not drawn) [Compound 81, 1-Ethyl-4-(4-(2-(heptyloxy)benzamido)benzamido)-1-methylpiperidin-1-ium bromide], for which the MIC in assay [1] and in assay [2] was greater than 30 µg/mL each time.

Regarding `CCCCCCCCOc1ccccc1C(=O)Nc1ccc(S(=O)(=O)NCC[N+](CC)(CC)CCC)cc1.[Br-]` [Compound 82, N,N-Diethyl-N-(2-((4-(2-(octyloxy)benzamido)phenyl)sulfonamido)ethyl)propan-1-aminium bromide], the MIC in assay [1] and in assay [2] was 3 to 30 µg/mL each time.

On to `CCCCCCCOc1ccccc1C(=O)Nc1ccc(S(=O)(=O)NCC[N+](CC)(CC)CCC)cc1.[Br-]` [Compound 83, N,N-Diethyl-N-(2-((4-(2-(heptyloxy)benzamido)phenyl)sulfonamido)ethyl)propan-1-aminium bromide], for which the MIC in assay [1] is 3 to 30 µg/mL; in assay [2] it was greater than 30 µg/mL.

Regarding `CCCCCCCCOc1ccccc1C(=O)Nc1ccc(C(=O)NC2CC[N+](CC)(CCC)CC2)cc1.[Br-]` (stereo not drawn) [Compound 84, 1-Ethyl-4-(4-(2-(octyloxy)benzamido)benzamido)-1-propylpiperidin-1-ium bromide], the values for the MIC in assay [1] and in assay [2] were 3 to 30 µg/mL and greater than 30 µg/mL, respectively.

With `CCCCCCCOc1ccccc1C(=O)Nc1ccc(C(=O)NC2CC[N+](CC)(CCC)CC2)cc1.[Br-]` (stereo not drawn) [Compound 85, 1-Ethyl-4-(4-(2-(heptyloxy)benzamido)benzamido)-1-propylpiperidin-1-ium bromide], the MIC in assay [1] is 3 to 30 µg/mL; in assay [2] it was greater than 30 µg/mL.

As to `CCCCCCCCOc1ccc(F)cc1C(=O)Nc1ccc(C(=O)OCC[N+](C)(CC)CC)cc1.[Br-]` [Compound 86, N,N-Diethyl-2-((4-(5-fluoro-2-(octyloxy)benzamido)benzoyl)oxy)-N-methylethan-1-aminium bromide], the MIC in assay [1] is less than 3 µg/mL; in assay [2], 3 to 30 µg/mL.

In the case of `CCCCCCCCOc1cc(F)ccc1C(=O)Nc1ccc(C(=O)OCC[N+](C)(CC)CC)cc1.[Br-]` [Compound 87, N,N-Diethyl-2-((4-(4-fluoro-2-(octyloxy)benzamido)benzoyl)oxy)-N-methylethan-1-aminium bromide], the MIC in assay [1] is 3 to 30 µg/mL; in assay [2], greater than 30 µg/mL.

As to `CCCCCCCCOc1cccc(F)c1C(=O)Nc1ccc(C(=O)OCC[N+](C)(CC)CC)cc1.[Br-]` [Compound 88, N,N-Diethyl-2-((4-(2-fluoro-6-(octyloxy)benzamido)benzoyl)oxy)-N-methylethan-1-aminium bromide], the results for the MIC in assay [1] and in assay [2] were 3 to 30 µg/mL and greater than 30 µg/mL, respectively.

For the molecule `CCCCCCCCOc1c(F)cccc1C(=O)Nc1ccc(C(=O)OCC[N+](C)(CC)CC)cc1.[Br-]` [Compound 89, N,N-Diethyl-2-((4-(3-fluoro-2-(octyloxy)benzamido)benzoyl)oxy)-N-methylethan-1-aminium bromide], the MIC is 3 to 30 µg/mL in assay [1] and greater than 30 µg/mL in assay [2].

Take `CCCCCCCCOc1ccccc1C(=O)Nc1ccc(C(=O)OCC[N+](C)(CC)CC)c(F)c1.[Br-]` [Compound 90, N,N-Diethyl-2-((2-fluoro-4-(2-(octyloxy)benzamido)benzoyl)oxy)-N-methylethan-1-aminium bromide]: the MIC in assay [1] and in assay [2] was 3 to 30 µg/mL throughout.

For `CCCCCCCCOc1ccccc1C(=O)Nc1ccc(C(=O)OCC[N+](C)(CC)CC)cc1F.[Br-]` [Compound 91, N,N-Diethyl-2-((3-fluoro-4-(2-(octyloxy)benzamido)benzoyl)oxy)-N-methylethan-1-aminium bromide], the MIC in assay [1] is 3 to 30 µg/mL; in assay [2], greater than 30 µg/mL.

Take `CCCCCCOc1ccccc1C(=O)Nc1ccc(S(=O)(=O)NCC[N+](CC)(CC)CCCCC)cc1.[Br-]` [Compound 92, N,N-Diethyl-N-(2-((4-(2-(hexyloxy)benzamido)phenyl)sulfonamido)ethyl)pentan-1-aminium bromide]: the MIC in assay [1] was 3 to 30 µg/mL; in assay [2], greater than 30 µg/mL.

For the molecule `CCCCCCCOc1ccccc1C(=O)Nc1ccc(S(=O)(=O)NCC[N+](CC)(CC)CCCC)cc1.[Br-]` [Compound 93, N,N-Diethyl-N-(2-((4-(2-(heptyloxy)benzamido)phenyl)sulfonamido)ethyl)butan-1-aminium bromide], the MIC is 3 to 30 µg/mL in assay [1] and greater than 30 µg/mL in assay [2].
